Columns and labels:
[1] = system: cocklebur; assay: Test B pre/postemergence cocklebur; type: in vivo, Xanthium strumarium
Summary of the method: (§1)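 Test chemicals in a non-phytotoxic solvent mixture with surfactant were sprayed preemergence onto planted seeds and postemergence onto plants 2 to 18 cm tall (1- to 4-leaf stage). After twelve to sixteen days in a greenhouse, injury was visually rated against untreated controls from 0 (no effect) to 10 (complete control).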

[2] = system: rape; assay: Test B pre/postemergence rape; type: in vivo, Brassica napus
Summary of the method: as §1

[3] = system: sugar beet; assay: Test B pre/postemergence sugar beet; type: in vivo, Beta vulgaris
Summary of the method: as §1

[4] = system: bamyardgrass; assay: Test B flood test barnyardgrass; type: in vivo, Echinochloa crus-galli
Summary of the method: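 Flood test on plants grown to the 2-leaf stage; treated plants kept in greenhouse twelve to sixteen days, then visually rated against controls on a 0 (no effect) to 10 (complete control) scale.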

[5] = system: common pursiane; assay: Test D common purslane; type: in vivo, Portulaca oleracea
Summary of the method: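 Each weed species is planted in its own pot or compartment; preemergence doses go on the sandy loam surface within a day. The formulation is a surfactant-containing, non-phytotoxic solvent blend. Ratings come from visual comparison with untreated controls 14 to 21 days later, where 100 means complete control.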

[6] = system: winter wheat; assay: Test E winter wheat; type: in vivo, Triticum aestivum; conditions: Postemergence
Summary of the method: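 Greenhouse test: compounds in non-phytotoxic solvent with surfactant; for postemergence, sprayed on plants at 1- to 4-leaf stage grown in 60:40 sandy loam/potting mix. Injury rated visually against untreated controls after about 21 to 28 days.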

[7] = system: blackgrass; assay: Test E blackgrass; type: in vivo, Alopecurus myosuroides; conditions: Preemergence
[8] = system: green foxtail; assay: Test E green foxtail; type: in vivo, Setaria viridis; conditions: Preemergence
[9] = system: Italian ryegrass; assay: Test E Italian ryegrass; type: in vivo, Lolium multiflorum; conditions: Preemergence
[10] = system: winter wheat; assay: Test E winter wheat; type: in vivo, Triticum aestivum; conditions: Preemergence
[11] = system: wild oat; assay: Test E wild oat; type: in vivo, Avena fatua; conditions: Preemergence, 0 to 100 scale where 0 is no effect and 100 is complete control
[12] = system: winter barley; assay: Test E winter barley; type: in vivo, Hordeum vulgare; conditions: Preemergence
[13] = Postemergence, Rate 125 g/ha, scale of 0 to 10 where 0 is no effect and 10 is complete control
[14] = Postemergence, Rate 250 g/ha, scale 0 to 10, 0 no effect, 10 complete control
[15] = Preemergence, Rate 62 g/ha, scale 0 to 10 (0 no effect, 10 complete control)
[16] = Preemergence, Rate 125 g/ha, scale 0 to 10 (0 no effect, 10 complete control)
[17] = Preemergence, Rate 250 g/ha, scale of 0 to 10 where 0 is no effect and 10 is complete control
[18] = Preemergence, Rate 500 g/ha, scale 0 to 10 (0 no effect, 10 complete control)
[19] = Rate 62 g/ha, Postemergence, scale of 0 to 10 where 0 is no effect and 10 is complete control
[20] = Rate 500 g/ha, Postemergence, scale 0 to 10, 0 no effect, 10 complete control
[21] = Postemergence, Rate 62 g/ha, scale 0 to 10, 0 is no effect, 10 is complete control
[22] = Rate 125 g/ha, Postemergence section (flood test species), scale 0 to 10, 0 no effect, 10 complete control
[23] = flood test, listed under Postemergence, Rate 250 g/ha, scale 0 to 10, 0 no effect, 10 complete control
[24] = Rate 16 g/ha; Preemergence; 0 to 100 scale, 0 no injury, 100 complete control
[25] = Rate 32 g/ha; Preemergence; 0 to 100 scale, 0 no injury, 100 complete control
[26] = Rate 64 g/ha, Preemergence; 0 to 100 scale, 0 no injury, 100 complete control
[27] = Rate 125 g/ha, Preemergence; 0 to 100 scale, 0 no injury, 100 complete control
[28] = Rate 250 g/ha, 0 to 100 scale (0 no effect, 100 complete control)
[29] = Rate 500 g/ha, 0 to 100 scale, 0 no effect, 100 complete control
[30] = Rate 500 g/ha, 0 to 100 scale where 0 is no effect and 100 is complete control
[31] = Rate 1000 g/ha, 0 to 100 scale where 0 is no effect and 100 is complete control
[32] = Preemergence, Rate 62 g/ha, scale 0 to 10, 0 is no effect, 10 is complete control
[33] = Preemergence, Rate 500 g/ha, scale 0 (no effect) to 10 (complete control)
[34] = Rate 125 g/ha, Postemergence, scale 0 to 10, 0 no effect, 10 complete control
[35] = Rate 500 g/ha, Postemergence, 0 to 10 scale (0 no effect, 10 complete control)

SMILES: CC(C)N(C(=O)n1oc(=O)n(C2CCCCC2)c1=O)c1ccc(F)cc1F [Compound 115]
- Cocklebur plant response rating [1, 13]: 0
- Cocklebur plant response rating [1, 14]: 1
- Cocklebur plant response rating [1, 15]: 0
- Plant response rating, Cocklebur [1, 16]: 0
- Plant response rating, Cocklebur [1, 17]: 0
- Cocklebur plant response rating [1, 18]: 0
- Cocklebur plant response rating [1, 19]: 0
- Cocklebur plant response rating [1, 20]: 2
- Rape plant response rating [2, 13]: 0
- Rape plant response rating [2, 14]: 0
- Rape plant response rating [2, 15]: 0
- Plant response rating, Rape [2, 16]: 0
- Plant response rating, Rape [2, 17]: 0
- Rape plant response rating [2, 18]: 5
- Rape plant response rating [2, 19]: 0
- Rape plant response rating [2, 20]: 0
- Sugarbeets plant response rating [3, 13]: 3
- Sugarbeets plant response rating [3, 15]: 0
- Sugarbeets plant response rating (0 to 10 scale) ([3]; Preemergence, Rate 125 g/ha, 0 is no effect, 10 is complete control): 0
- Plant response rating, Sugarbeets [3, 17]: 0
- Sugarbeets plant response rating [3, 18]: 5
- Sugarbeets plant response rating [3, 19]: 2
- Plant response rating, Sugarbeets ([3]; Rate 250 g/ha, Postemergence, scale 0 to 10, 0 is no effect, 10 is complete control): 3
- Sugarbeets plant response rating [3, 20]: 3
- Barnyardgrass plant response rating [4, 21]: 0
- Barnyardgrass plant response rating [4, 22]: 0
- Barnyardgrass plant response rating ([4]; Rate 500 g/ha, listed under Postemergence (flood test species), scale 0 to 10, 0 no effect, 10 complete control): 0
- Barnyardgrass plant response rating [4, 23]: 0
- Plant response rating, C. purslane [5, 24]: 0
- Plant response rating, C. purslane [5, 25]: 0
- Plant response rating, C. purslane [5, 26]: 0
- Plant response rating, C. purslane [5, 27]: 0
- Plant response rating, C. purslane ([5]; Rate 250 g/ha; Preemergence; 0 to 100 scale): 0
- Plant response rating, C. purslane ([5]; Rate 500 g/ha, Preemergence; 0 to 100 scale): 20
- Plant response rating, C. purslane ([5]; Rate 500 g/ha; Preemergence; 0 to 100 scale): 0
- Plant response rating, Wheat (winter) [6, 28]: 10
- Plant response rating, Wheat (winter) ([6]; Rate 1000 g/ha, 0 to 100 scale, 0 is no effect and 100 is complete control): 40
- Plant response rating, Wheat (winter) [6, 29]: 20
- Plant response rating, Blackgrass ([7]; Rate 250 g/ha, 0 to 100 scale): 30
- Plant response rating, Blackgrass [7, 30]: 50
- Plant response rating, Blackgrass [7, 31]: 60
- Plant response rating, Green foxtail ([8]; Rate 250 g/ha, 0 to 100 scale): 65
- Plant response rating, Green foxtail [8, 30]: 70
- Plant response rating, Green foxtail [8, 31]: 90
- Plant response rating, I. Ryegrass ([9]; Rate 250 g/ha, 0 to 100 scale): 45
- Plant response rating, I. Ryegrass [9, 30]: 50
- Plant response rating, I. Ryegrass [9, 31]: 80
- Plant response rating, Wheat (winter) ([10]; Rate 250 g/ha, 0 to 100 scale): 5
- Plant response rating, Wheat (winter) [10, 30]: 10
- Plant response rating, Wheat (winter) [10, 31]: 20
- Plant response rating, Wild oat ([11]; Rate 500 g/ha): 50
- Plant response rating, Wild oat ([11]; Rate 1000 g/ha): 60
- Plant response rating, Barley (winter) ([12]; Rate 250 g/ha, 0 to 100 scale): 10
- Plant response rating, Barley (winter) [12, 30]: 20
- Plant response rating, Barley (winter) [12, 31]: 30

SMILES: Cc1cccc(C)c1-n1c(=O)on(C(=O)N(c2ccc(F)cc2)C(C)C)c1=O [Compound 18]
- Cocklebur plant response rating [1, 21]: 0
- Cocklebur plant response rating [1, 14]: 1
- Plant response rating, Cocklebur [1, 32]: 0
- Plant response rating, Cocklebur [1, 16]: 0
- Plant response rating, Cocklebur [1, 17]: 0
- Cocklebur plant response rating [1, 33]: 0
- Cocklebur plant response rating [1, 34]: 0
- Cocklebur plant response rating [1, 35]: 2
- Rape plant response rating [2, 21]: 0
- Rape plant response rating [2, 14]: 0
- Plant response rating, Rape [2, 32]: 0
- Plant response rating, Rape [2, 16]: 0
- Plant response rating, Rape [2, 17]: 0
- Rape plant response rating [2, 33]: 2
- Rape plant response rating [2, 34]: 0
- Rape plant response rating [2, 35]: 1
- Sugarbeets plant response rating [3, 21]: 0
- Sugarbeets plant response rating [3, 14]: 0
- Plant response rating, Sugarbeets [3, 32]: 0
- Plant response rating, Sugarbeets [3, 16]: 0
- Plant response rating, Sugarbeets [3, 17]: 2
- Sugarbeets plant response rating [3, 33]: 4
- Sugarbeets plant response rating [3, 34]: 0
- Barnyardgrass plant response rating [4, 21]: 0
- Barnyardgrass plant response rating ([4]; Rate 62 g/ha, headed Pre-emergence (flood test species), scale 0 to 10 (0 no effect, 10 complete control)): 2
- Barnyardgrass plant response rating [4, 22]: 0
- Barnyardgrass plant response rating ([4]; Rate 125 g/ha, Pre-emergence, flood test species, scale 0 to 10 where 0 is no effect and 10 is complete control): 2
- Barnyardgrass plant response rating ([4]; Rate 250 g/ha, headed Pre-emergence (flood test species), scale 0 to 10 (0 no effect, 10 complete control)): 2
- Barnyardgrass plant response rating ([4]; Rate 500 g/ha, Postemergence section of Table B, 0 to 10 scale (0 no effect, 10 complete control)): 10
- Plant response rating, Barnyardgrass ([4]; Rate 500 g/ha, headed Pre-emergence (flood test species), scale 0 to 10 (0 no effect, 10 complete control)): 8
- Barnyardgrass plant response rating ([4]; Rate 1000 g/ha, Pre-emergence (as headed), scale 0 to 10): 9
- Barnyardgrass plant response rating ([4]; Rate 2000 g/ha, Pre-emergence (as headed), scale 0 to 10, 0 no effect, 10 complete control): 9
- Barnyardgrass plant response rating [4, 23]: 9
- Plant response rating, C. purslane [5, 24]: 0
- Plant response rating, C. purslane [5, 25]: 0
- Plant response rating, C. purslane [5, 26]: 0
- Plant response rating, C. purslane [5, 27]: 0
- Plant response rating, Wheat (winter) [6, 28]: 55
- Plant response rating, Wheat (winter) [6, 29]: 65
- Plant response rating, Blackgrass ([7]; Rate 250 g/ha, 0 to 100 scale): 10
- Plant response rating, Blackgrass [7, 30]: 25
- Plant response rating, Blackgrass [7, 31]: 85
- Plant response rating, Green foxtail ([8]; Rate 250 g/ha, 0 to 100 scale): 30
- Plant response rating, Green foxtail [8, 30]: 50
- Plant response rating, Green foxtail [8, 31]: 70
- Plant response rating, I. Ryegrass ([9]; Rate 250 g/ha, 0 to 100 scale): 40
- Plant response rating, I. Ryegrass [9, 30]: 60
- Plant response rating, I. Ryegrass [9, 31]: 70
- Plant response rating, Wheat (winter) ([10]; Rate 250 g/ha, 0 to 100 scale): 0
- Plant response rating, Wheat (winter) [10, 30]: 10
- Plant response rating, Wheat (winter) [10, 31]: 20
- Plant response rating, Wild oat ([11]; Rate 500 g/ha): 40
- Plant response rating, Wild oat ([11]; Rate 1000 g/ha): 50
- Plant response rating, Barley (winter) ([12]; Rate 250 g/ha, 0 to 100 scale): 20
- Plant response rating, Barley (winter) [12, 30]: 30
- Plant response rating, Barley (winter) [12, 31]: 50

Source: patent US6737383B1, “Herbicidal oxadiazolidines” (priority 1999, dated 2004)
